According to a melting point compilation (Tetko et al.; mined from patent text by program, amines drawn as free bases though some values may be those of a salt):

First: COc1ccccc1Oc1c(NS(=O)(=O)c2ccc(C(C)(C)C)cc2)nc(SC)nc1OCCOc1ncc(Br)cn1
Second: COCCOc1cc(Oc2ccc(C(F)(F)F)cn2)ccc1CCCOc1cc(CCC(=O)O)n(-c2ccccc2)n1
The melting point of the first is higher: 117 to 121 °C for the first, 83 to 85 °C for the second.

First: CCCCCCCCCCCCCCCCCC(=O)c1ccc(OC)c(C(=O)OC)c1
Second: CCCOc1ccc(OC)cc1-c1ncc(C(N)=O)c(=O)[nH]1
The melting point of the first is lower: 73 to 74 °C for the first, 206 to 207 °C for the second.

First: COc1cc(Nc2c(C#N)cnc3cc(N4CCC(N5CCCC5)CC4)c(OC)cc23)c(Cl)cc1Cl
Second: COc1cc2ncnc(N3CCC(CCBr)CC3)c2cc1OC
The melting point of the first is higher: 225 to 227 °C for the first, 191 °C for the second.

First: Cc1ccc(-c2ccccc2C(=O)O)cc1C(=O)NCC1CCCCCC1
Second: O=S(=O)(Cc1ccccc1)N1CCC(c2ccc(O)cc2O)CC1
The melting point of the first is lower: 188 to 189 °C for the first, 207 to 208 °C for the second.

First: CNC(=O)c1ncc2[nH]c3cccc(Oc4ccc(Cl)cc4)c3c2c1COC
Second: Cc1cccc(COc2cccc(OCc3cccc(Cl)n3)c2)c1C(=O)O
The melting point of the first is higher: 236 °C for the first, 97 to 98 °C for the second.

First: C[C@@H]1C[C@](C)(O)[C@H](C)N1c1ccc(C#N)c(C(F)(F)F)c1
Second: O=[N+]([O-])c1ccc(SCl)c(C(Cl)(Cl)Cl)c1
The melting point of the first is higher: 115 to 117 °C for the first, 56 to 57 °C for the second.

Compared with CC1(C)C(=O)C(C(=O)Cc2ccc(Cl)cc2)C(=O)C(C)(C)C1=O, CCOC(=O)CN1C(=O)c2cccc3cccc(c23)C1=O is higher in melting point: 57 to 61 °C for the first, 160 to 162 °C for the second.

Compared with CCOC(=O)C=C(C)C=CC=C(C)C=Cc1c(Cl)cc(OC)c(C)c1Cl, CCS(=O)(=O)c1cc(C(=O)Cl)c(OC)cc1Cl is higher in melting point: 100 to 101 °C for the first, 115 to 117 °C for the second.

Compared with Cc1ccc(F)c(NC(=O)c2ccccc2CN2C(=O)C3(COc4cc5c(cc43)CCO5)c3ccccc32)c1 (stereo not given), COc1cc(CCCN(C)Cc2ccc(OC)c(OC)c2)ccc1NC(=O)c1cccc2c(=O)c3cccc(OC)c3[nH]c12 is lower in melting point: 214 to 216 °C for the first, 105 °C for the second.

First: CCCCc1nc(SCC)c(CO)[nH]1
Second: CCc1nc(CO)n(CC)c1Sc1cc(C#N)cc(C#N)c1
The melting point of the first is lower: 128 °C for the first, 141 to 143 °C for the second.

First: CCOC(=O)CCc1cc(OCC(=O)NNC(C)=O)nn1Cc1ccc(Cl)cc1Cl
Second: CCc1nn2c(-c3ccc(Cl)cc3Cl)cccc2c1[N+](=O)[O-]
The melting point of the first is higher: 167 to 170 °C for the first, 147 to 149 °C for the second.

First: Cc1c(C(=O)c2ccccc2Cl)c(NC(=O)CI)cn1C
Second: CCCC(=O)c1cnc2c(C)cccc2c1Nc1ccccc1F
The melting point of the first is higher: 155 to 157 °C for the first, 109 to 111 °C for the second.

First: Cc1ccc(F)c(-c2cc(Nc3ccnc4cn(CC(O)CO)nc34)ccn2)n1 (stereo not given)
Second: O=C(Nc1cccc2cc(CBr)cnc12)c1c(Cl)cccc1Cl
The melting point of the first is lower: 182 to 184 °C for the first, 223 to 224 °C for the second.

First: CCCC(C)Nc1c([N+](=O)[O-])cc(S(C)(=O)=O)c(C)c1[N+](=O)[O-] (stereo not given)
Second: CC(C)(C)OC(=O)Nc1ccc(-c2ccoc2)cc1[N+](=O)[O-]
The melting point of the first is lower: 85 to 88 °C for the first, 105 to 110 °C for the second.

Compared with CCOC(=O)c1cc2cc(C)cc(C)c2[nH]1, COc1c(Cl)ccc(-c2cc(N)c(Cl)c(C(=O)N(C)OC)n2)c1F is higher in melting point: 141 to 143 °C for the first, 159 to 162 °C for the second.

First: NC(=O)/C=C1/c2cc(F)ccc2CC1Br (stereo not given)
Second: CN1CCC(Oc2cc(Cl)ccc2C(N)=O)C1 (stereo not given)
The melting point of the first is higher: 162 to 163 °C for the first, 122 to 123 °C for the second.

First: CCCC(=O)Nc1cc([N+](=O)[O-])c(Sc2cccc3cnccc23)cc1N
Second: CN1C(=O)CC[C@]2(C)c3ccc(Sc4ccc5c([N+](=O)[O-])cccc5n4)cc3CC[C@@H]12
The melting point of the first is higher: 191 to 192 °C for the first, 149 to 154 °C for the second.

First: CCCN(CCC)C1Cc2c[nH]c3ccc(C(=O)CC)c(c23)C1 (stereo not given)
Second: CN1CC(Cn2cncn2)CC2c3cccc4[nH]cc(c34)CC21 (stereo not given)
The melting point of the first is lower: 149 to 150 °C for the first, 245 to 253 °C for the second.

First: CC(NC(=O)C(CS)Cc1ccccc1)C(=O)O (stereo not given)
Second: O=C(O)CCC(CSc1nc2ccccc2s1)C(=O)O (stereo not given)
The melting point of the first is lower: 120 to 124 °C for the first, 152 to 154 °C for the second.

Compared with COc1cc(C(=O)O)ccc1Cc1cn(C)c2ccc(C(=O)NCCC(C)C)cc12, CC(=O)NCCc1cn(S(=O)(=O)c2ccc(C)cc2)c2ccc(OCCN3CCCCC3)cc12 is lower in melting point: 190 to 191 °C for the first, 65 to 66 °C for the second.

NNC(=O)c1cnc2n(c1=O)CCCCC2 and Cc1sc(C(N)=O)c2c1-c1c(cnn1C)CC2 cannot be ordered by melting point: 184 to 186 °C for the first, 184 to 185 °C for the second.

First: CCOC(=O)CN1C(=O)C(=C(C)C)SC1=Nc1cc(-n2c(=O)cc(C(F)(F)F)n(C)c2=O)c(F)cc1Cl
Second: CCCn1c(=O)c2c(NC)n[nH]c2n(Cc2cccc(Cl)c2)c1=O
The melting point of the first is lower: 67 to 80 °C for the first, 263 to 265 °C for the second.

Compared with COC(=O)c1ccc(F)c2c1OCC=C2, Nc1cc(F)c(-n2ccc(=O)cc2)cc1N is higher in melting point: 65 to 67 °C for the first, 227 to 230 °C for the second.

First: CC(C)(C)c1cc(SCCC(=O)NC23CC4CC(CC(C4)C2)C3)cc(C(C)(C)C)c1O
Second: CC(C)(C)OC(=O)N1C[C@@H]2C[C@H]1C(=O)N2C(C)(C)C
The melting point of the first is higher: 172 to 174 °C for the first, 167 to 168 °C for the second.

First: O=C(/C=C/C=C/c1ccccc1Cl)NCCCCCC(=O)NO
Second: CCCn1c(NC(=O)c2ccccc2)nc2ccccc2c1=O
The melting point of the first is lower: 129 to 131 °C for the first, 133 to 135 °C for the second.

Compared with Cc1c(Br)cccc1NS(=O)(=O)c1cc(S(=O)(=O)Nc2cccc(Br)c2C)c2cc(O)ccc2c1, CC(=O)Oc1cccc2c(-c3ccccc3)c3cccc(OC(C)=O)c3c(OC(C)=O)c12 is higher in melting point: 129 to 131 °C for the first, 193 to 194 °C for the second.

Compared with CSC1C(=O)Nc2cccc(-c3ccccc3)c21 (stereo not given), CC1Cc2cccc(-c3ccccc3)c2C(=O)O1 (stereo not given) is lower in melting point: 182 to 185 °C for the first, 140 to 142 °C for the second.

First: OC(CCCCBr)(c1ccc(F)cc1)c1ccc(F)cc1
Second: N#Cc1[nH]c2ccc(Cl)cc2c1-c1ccccc1
The melting point of the first is lower: 55 °C for the first, 115 to 117 °C for the second.

Compared with CN(C)c1ccc2c(c1)NCC2, Cc1ccc(-c2ccn(C(C)C(=O)N(C)C)n2)cc1 (stereo not given) is lower in melting point: 165 to 167 °C for the first, 79 to 82 °C for the second.

First: COc1ccc(NC(=NC#N)NC(NC(=O)Cc2ccc(OC)c(OC)c2)C(C)(C)C)c(OC)n1 (stereo not given)
Second: CC(C)(C)c1cc(Oc2ccc(N)cc2)ccc1Oc1ccc(N)cc1
The melting point of the first is higher: 162 to 163 °C for the first, 129 to 130 °C for the second.

First: O=C1c2ccccc2C(=O)N1c1cccnc1Cl
Second: O=c1ccn(-c2cccc(C(F)(F)F)c2)nc1-c1ccnn1-c1ccccc1Cl
The melting point of the first is higher: 156 to 157 °C for the first, 139 to 140 °C for the second.

First: CC(=O)Nc1cc(Oc2c(Cl)cc(-n3ncc(=O)[nH]c3=O)cc2Cl)ccc1O
Second: CCN(CC)S(=O)(=O)c1cc2c(c(C(=O)NCc3ccccc3)c1)OCCO2
The melting point of the first is lower: 101 to 109 °C for the first, 125 °C for the second.

First: O=C(O)C1C2C=CC(C2)C1C(F)(F)F (stereo not given)
Second: CCc1cc2c(cc1O)CCC1C2CCC2(C)C(=CCOC)CCC12 (stereo not given)
The melting point of the first is lower: 85 to 90 °C for the first, 133 to 134 °C for the second.

Compared with CNC(=O)c1ccc(-c2ccc(NC(=O)NCc3cccnc3)cc2)nc1Nc1ccccc1, O=C1C(CCS(=O)c2ccccc2)C(=O)N(c2ccccc2)N1c1ccccc1 (stereo not given) is lower in melting point: 234 to 236 °C for the first, 130 to 132 °C for the second.

Compared with CC(C)c1cccc(C(C)C)c1NC(=O)CN1CCCN(CCCSc2nc3ccccc3o2)CC1, Cc1ccc(-n2c3ccc(C)cc3c3cc(-n4ccnc4-c4nccn4-c4ccc5c(c4)c4cc(C)ccc4n5-c4ccc(C)cc4)ccc32)cc1 is higher in melting point: 109 to 111 °C for the first, 208 to 214 °C for the second.
